According to ChEMBL document CHEMBL5365465, “Oxetanes in Drug Discovery Campaigns” (J Med Chem, 2023):
Blank lines part the entries; values can stand above or below the compound they belong to.

Key:
[1] = target: T1, Leucine-rich repeat serine/threonine-protein kinase 2 (Homo sapiens, UniProt Q5S007); experiment: Inhibition of LRRK2 (unknown origin)
[2] = Metabolic stability in human liver microsomes assessed as intrinsic clearance; type: ADME, Microsome
[3] = Aqueous solubility of compound at pH 2; type: physicochemical
[4] = target: T1, Leucine-rich repeat serine/threonine-protein kinase 2; experiment: Inhibition of LRRK2 in human PBMCs assessed as reduction in […] phosphorylation
[5] = target: Histone-lysine N-methyltransferase EZH2 (Homo sapiens, UniProt Q15910); experiment: Inhibition of EZH2 (unknown origin)
Protease = Protease (Human immunodeficiency virus 1, UniProt Q9YQ12); experiment: Inhibition of HIV protease
Chain of Protease (Q9YQ12 whole entry): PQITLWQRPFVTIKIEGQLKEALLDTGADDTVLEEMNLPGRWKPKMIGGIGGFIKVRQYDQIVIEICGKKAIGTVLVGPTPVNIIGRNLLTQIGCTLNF

[6] = target: Mast/stem cell growth factor receptor Kit (Homo sapiens, UniProt P10721, D816V); experiment: Inhibition of KIT D816V mutant (unknown origin)
Chain of Mast/stem cell growth factor receptor Kit (P10721 26-976 D816V limits assumed): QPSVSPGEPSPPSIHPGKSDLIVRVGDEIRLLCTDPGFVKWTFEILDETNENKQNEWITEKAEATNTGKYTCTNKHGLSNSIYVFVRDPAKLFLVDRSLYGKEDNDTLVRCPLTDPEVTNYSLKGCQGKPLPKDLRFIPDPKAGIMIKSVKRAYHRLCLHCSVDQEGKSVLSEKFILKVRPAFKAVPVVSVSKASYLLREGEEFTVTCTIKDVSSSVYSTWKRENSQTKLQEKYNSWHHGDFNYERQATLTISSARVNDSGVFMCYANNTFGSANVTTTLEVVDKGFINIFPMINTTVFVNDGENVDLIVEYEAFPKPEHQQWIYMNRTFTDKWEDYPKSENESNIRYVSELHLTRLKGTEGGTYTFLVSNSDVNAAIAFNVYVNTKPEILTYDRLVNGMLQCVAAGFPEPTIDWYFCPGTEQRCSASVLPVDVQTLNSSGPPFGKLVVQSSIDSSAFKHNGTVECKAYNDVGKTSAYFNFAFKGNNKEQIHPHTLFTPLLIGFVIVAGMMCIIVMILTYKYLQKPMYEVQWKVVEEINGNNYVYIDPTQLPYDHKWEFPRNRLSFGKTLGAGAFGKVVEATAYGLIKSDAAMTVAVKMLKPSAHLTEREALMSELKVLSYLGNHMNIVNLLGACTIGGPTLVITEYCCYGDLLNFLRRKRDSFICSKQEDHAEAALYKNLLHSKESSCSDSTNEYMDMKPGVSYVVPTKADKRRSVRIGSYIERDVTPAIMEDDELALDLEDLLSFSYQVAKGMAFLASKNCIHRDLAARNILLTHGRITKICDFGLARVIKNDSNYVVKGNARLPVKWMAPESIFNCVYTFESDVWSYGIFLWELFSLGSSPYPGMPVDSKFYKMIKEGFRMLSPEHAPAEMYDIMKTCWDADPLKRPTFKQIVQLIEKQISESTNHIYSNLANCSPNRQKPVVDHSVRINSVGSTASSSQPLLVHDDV

[7] = target: Platelet-derived growth factor receptor alpha (Homo sapiens, UniProt P16234, D842V); experiment: Inhibition of PDGFRalpha D842V mutant (unknown origin)
Chain of Platelet-derived growth factor receptor alpha (P16234 24-1089 D842V limits assumed): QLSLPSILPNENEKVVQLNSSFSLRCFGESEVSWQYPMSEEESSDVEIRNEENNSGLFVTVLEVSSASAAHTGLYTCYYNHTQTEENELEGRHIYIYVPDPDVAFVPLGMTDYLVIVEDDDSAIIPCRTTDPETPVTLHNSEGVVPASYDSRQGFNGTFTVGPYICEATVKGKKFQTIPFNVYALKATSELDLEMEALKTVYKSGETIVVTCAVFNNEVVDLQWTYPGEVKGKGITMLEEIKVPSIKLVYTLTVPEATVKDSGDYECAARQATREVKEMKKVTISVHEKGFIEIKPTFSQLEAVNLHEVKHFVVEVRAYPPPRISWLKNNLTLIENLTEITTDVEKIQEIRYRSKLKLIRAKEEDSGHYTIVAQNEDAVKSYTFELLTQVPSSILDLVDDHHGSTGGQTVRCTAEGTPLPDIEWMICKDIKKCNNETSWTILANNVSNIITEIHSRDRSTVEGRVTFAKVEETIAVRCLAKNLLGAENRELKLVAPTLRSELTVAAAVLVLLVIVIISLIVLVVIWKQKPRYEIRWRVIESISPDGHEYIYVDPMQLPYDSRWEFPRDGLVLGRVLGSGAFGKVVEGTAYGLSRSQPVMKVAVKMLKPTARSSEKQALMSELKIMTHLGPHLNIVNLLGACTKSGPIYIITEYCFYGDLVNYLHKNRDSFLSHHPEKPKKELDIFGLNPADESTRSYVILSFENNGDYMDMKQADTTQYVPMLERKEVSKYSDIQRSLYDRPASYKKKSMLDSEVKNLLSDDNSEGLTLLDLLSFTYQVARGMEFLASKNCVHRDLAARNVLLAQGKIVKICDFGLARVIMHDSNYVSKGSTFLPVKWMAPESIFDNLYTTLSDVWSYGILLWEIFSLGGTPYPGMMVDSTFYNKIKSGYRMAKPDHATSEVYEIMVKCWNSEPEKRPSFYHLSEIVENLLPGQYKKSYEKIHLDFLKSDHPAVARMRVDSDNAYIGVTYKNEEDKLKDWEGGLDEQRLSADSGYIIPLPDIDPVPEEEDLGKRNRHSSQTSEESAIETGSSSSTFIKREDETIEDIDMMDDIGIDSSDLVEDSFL

T1 sequence (Q5S007 whole entry): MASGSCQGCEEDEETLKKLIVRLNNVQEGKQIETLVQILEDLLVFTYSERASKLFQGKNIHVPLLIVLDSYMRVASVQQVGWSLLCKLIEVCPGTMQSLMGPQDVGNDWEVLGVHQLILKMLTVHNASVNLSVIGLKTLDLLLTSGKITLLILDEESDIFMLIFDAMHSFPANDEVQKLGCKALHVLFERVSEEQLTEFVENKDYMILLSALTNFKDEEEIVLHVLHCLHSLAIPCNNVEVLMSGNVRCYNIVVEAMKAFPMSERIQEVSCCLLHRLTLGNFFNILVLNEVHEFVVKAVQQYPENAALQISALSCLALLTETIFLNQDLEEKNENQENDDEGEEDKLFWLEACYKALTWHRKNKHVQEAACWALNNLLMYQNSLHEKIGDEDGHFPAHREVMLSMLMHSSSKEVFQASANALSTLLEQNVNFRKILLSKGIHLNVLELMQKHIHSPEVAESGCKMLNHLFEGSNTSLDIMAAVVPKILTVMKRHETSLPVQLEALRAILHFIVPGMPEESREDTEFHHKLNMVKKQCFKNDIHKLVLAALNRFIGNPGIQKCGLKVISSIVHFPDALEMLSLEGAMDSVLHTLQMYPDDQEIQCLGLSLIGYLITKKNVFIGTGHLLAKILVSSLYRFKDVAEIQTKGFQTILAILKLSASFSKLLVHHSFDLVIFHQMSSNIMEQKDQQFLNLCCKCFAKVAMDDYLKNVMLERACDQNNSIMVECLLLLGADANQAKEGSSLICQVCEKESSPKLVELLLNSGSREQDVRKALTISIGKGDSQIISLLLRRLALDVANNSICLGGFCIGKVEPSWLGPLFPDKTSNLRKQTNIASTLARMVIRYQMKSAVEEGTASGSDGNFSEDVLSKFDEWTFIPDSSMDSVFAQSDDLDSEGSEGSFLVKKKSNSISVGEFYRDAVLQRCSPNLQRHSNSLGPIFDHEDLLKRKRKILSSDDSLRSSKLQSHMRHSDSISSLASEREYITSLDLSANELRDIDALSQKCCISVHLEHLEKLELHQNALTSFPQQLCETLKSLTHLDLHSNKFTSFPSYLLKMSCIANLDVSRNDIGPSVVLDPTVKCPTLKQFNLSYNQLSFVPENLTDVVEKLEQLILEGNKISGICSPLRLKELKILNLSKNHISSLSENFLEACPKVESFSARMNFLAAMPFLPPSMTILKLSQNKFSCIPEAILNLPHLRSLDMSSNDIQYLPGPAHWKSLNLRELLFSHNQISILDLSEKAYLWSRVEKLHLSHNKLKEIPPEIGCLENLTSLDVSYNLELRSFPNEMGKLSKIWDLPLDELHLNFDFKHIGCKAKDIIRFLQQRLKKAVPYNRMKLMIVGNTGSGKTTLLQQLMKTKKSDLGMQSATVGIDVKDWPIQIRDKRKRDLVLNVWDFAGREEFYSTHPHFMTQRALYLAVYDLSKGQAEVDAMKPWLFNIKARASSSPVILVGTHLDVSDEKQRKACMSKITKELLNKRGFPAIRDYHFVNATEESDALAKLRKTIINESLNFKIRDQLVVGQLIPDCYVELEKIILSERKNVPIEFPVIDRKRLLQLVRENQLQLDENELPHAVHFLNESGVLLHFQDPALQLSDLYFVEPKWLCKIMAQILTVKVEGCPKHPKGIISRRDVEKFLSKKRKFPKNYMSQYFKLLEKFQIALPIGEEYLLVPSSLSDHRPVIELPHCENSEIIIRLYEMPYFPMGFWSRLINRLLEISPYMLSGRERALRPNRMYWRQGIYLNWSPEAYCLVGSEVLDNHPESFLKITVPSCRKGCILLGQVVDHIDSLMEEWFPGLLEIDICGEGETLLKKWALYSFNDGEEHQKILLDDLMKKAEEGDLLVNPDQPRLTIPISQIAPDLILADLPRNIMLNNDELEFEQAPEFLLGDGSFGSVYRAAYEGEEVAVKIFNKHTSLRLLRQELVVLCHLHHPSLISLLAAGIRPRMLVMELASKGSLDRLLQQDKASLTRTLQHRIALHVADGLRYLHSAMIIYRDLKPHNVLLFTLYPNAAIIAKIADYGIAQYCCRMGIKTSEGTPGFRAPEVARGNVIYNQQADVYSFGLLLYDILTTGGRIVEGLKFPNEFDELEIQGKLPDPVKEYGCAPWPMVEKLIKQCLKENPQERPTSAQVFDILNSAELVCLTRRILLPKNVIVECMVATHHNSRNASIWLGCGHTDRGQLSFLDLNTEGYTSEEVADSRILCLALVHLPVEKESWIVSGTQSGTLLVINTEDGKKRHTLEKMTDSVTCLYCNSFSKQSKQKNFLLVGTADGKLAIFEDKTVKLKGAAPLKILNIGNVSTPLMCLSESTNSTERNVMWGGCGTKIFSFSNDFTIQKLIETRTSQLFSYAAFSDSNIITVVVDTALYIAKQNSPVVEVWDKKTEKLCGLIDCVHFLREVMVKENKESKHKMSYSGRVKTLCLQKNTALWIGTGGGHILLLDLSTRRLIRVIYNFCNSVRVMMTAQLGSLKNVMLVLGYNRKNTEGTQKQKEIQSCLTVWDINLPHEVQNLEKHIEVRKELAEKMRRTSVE

CLH [2]: < 1.83 mL/min/kg | solubility [3]: > 100 µM
SMILES: Nc1cncc(-c2cn3ccnc3c(Nc3ccc(N4CCN(C5COC5)CC4)cc3)n2)n1 [LANRAPLENIB]

IC50 [5]: < 10 nM
SMILES: Cc1ccc2ccc(N[C@H]3CC[C@H](CNc4ncc(C(F)(F)C(=O)NC5COC5)cn4)CC3)nc2c1Cl

IC50 [6]: < 4.5 nM | IC50 [7]: < 4.5 nM
SMILES: C[C@](N)(c1ccc(F)cc1)c1cnc(N2CCN(c3ncnn4cc(-c5cnn(CC6COC6)c5)cc34)CC2)nc1

More lines, now with the values behind:

SMILES: CC(C)(C)Cn1cc(Nc2ncc3c(Cl)c(N4CCN(C5(C)COC5)CC4)ccc3n2)cn1
IC50 [1]: 9.7 nM

SMILES: O=C1NCCCOc2ccc3[nH]nc(c3c2)-c2cc(cc(N3CCC4(COC4)C3)c2)CO1
IC50 [4]: < 10 nM

SMILES: COC(=O)N[C@H](C(=O)N[C@@H](Cc1ccc(C#Cc2ccc(N3CC4CCC(C3)N4C3COC3)nc2)cc1)[C@@H](O)CN(Cc1c(F)cc(-c2ccn(C(F)F)n2)cc1F)NC(=O)[C@@H](NC(=O)OC)C(C)(C)C(F)(F)F)C(C)(C)C(F)(F)F
EC50 (Protease): 4.8 nM

SMILES: c1cn2cc(-c3ccc4cn[nH]c4c3)nc(Nc3ccc(N4CCOCC4)cc3)c2n1 [ENTOSPLETINIB]
CLH [2]: 5.17 mL/min/kg
